Measured values as given in the supplement of paper PMC10307832.

What was measured:
Test in all cases: relative viability (nuclei count vs DMSO), 5 days (fraction); higher = more cells survive
[1] = compound: CCN1CCC(CC1)N2C=C(N=N2)CNC3=CC4=C(C(=CN=C4C(=C3)Cl)C#N)NC5=CC(=C(C=C5)F)Cl [KIN001-266] + Nc1nc2[nH]cc(CCc3ccc(C(=O)N[C@@H](CCC(=O)O)C(=O)O)cc3)c2c(=O)[nH]1 [Pemetrexed] (partner 0.2 µM)
In short: (§1)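 Lung cancer cell lines in 1536-well plates got either a single drug or a fixed anchor-drug dose together with five library-drug doses (not always all listed) in √10 steps, by pin tool, on the day after seeding. Nuclei were counted after 5 days, and relative viability is the treated-to-vehicle ratio of nuclei counts. Values are medians of duplicate plates.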

[2] = compound: CCN1CCC(CC1)N2C=C(N=N2)CNC3=CC4=C(C(=CN=C4C(=C3)Cl)C#N)NC5=CC(=C(C=C5)F)Cl [KIN001-266] + CC1(C)CCC(c2ccc(Cl)cc2)=C(CN2CCN(c3ccc(C(=O)NS(=O)(=O)c4ccc(N[C@H](CCN5CCOCC5)CSc5ccccc5)c(S(=O)(=O)C(F)(F)F)c4)cc3)CC2)C1 [Navitoclax] (partner 0.5 µM)
In short: as §1

[3] = compound: CCN1CCC(CC1)N2C=C(N=N2)CNC3=CC4=C(C(=CN=C4C(=C3)Cl)C#N)NC5=CC(=C(C=C5)F)Cl [KIN001-266] + O=C(CCCCCCC(=O)Nc1ccccc1)NO [Vorinostat] (partner 1 µM)
In short: as §1

[4] = compound: CCN1CCC(CC1)N2C=C(N=N2)CNC3=CC4=C(C(=CN=C4C(=C3)Cl)C#N)NC5=CC(=C(C=C5)F)Cl [KIN001-266] + C[C@]1(O)C[C@@H](c2nc(-c3ccc4ccc(-c5ccccc5)nc4c3)c3c(N)nccn32)C1 [Linsitinib] (partner 1 µM)
In short: as §1

| Cell Line | relative viability ([1]; first compound 0.08 µM) | relative viability ([1]; first compound 0.253 µM) | relative viability ([1]; first compound 0.8 µM) | relative viability ([1]; first compound 2.53 µM) | relative viability ([1]; first compound 8 µM) | relative viability ([2]; first compound 0.08 µM) | relative viability ([2]; first compound 0.253 µM) | relative viability ([2]; first compound 2.53 µM) | relative viability ([2]; first compound 8 µM) | relative viability ([3]; first compound 0.08 µM) | relative viability ([3]; first compound 0.253 µM) | relative viability ([3]; first compound 0.8 µM) | relative viability ([3]; first compound 2.53 µM) | relative viability ([3]; first compound 8 µM) | relative viability ([4]; first compound 0.08 µM) | relative viability ([4]; first compound 0.253 µM) | relative viability ([4]; first compound 2.53 µM) | relative viability ([4]; first compound 8 µM) | relative viability ([2]; first compound 0.8 µM) | relative viability ([4]; first compound 0.8 µM) |
| --- | --- | --- | --- | --- | --- | --- | --- | --- | --- | --- | --- | --- | --- | --- | --- | --- | --- | --- | --- | --- |
| HCC-827 | 0.264 | 0.259 | 0.166 | 0.214 | 0.23 | 1.02 | 1.08 | 0.971 | 0.981 | 0.825 | 0.869 | 0.159 | 0.761 | 0.926 | 0.952 | 1.03 | 0.945 | 0.841 | – | – |
| HOP-62 | 0.313 | 0.304 | 0.469 | 0.353 | 0.381 | 1.11 | 1.02 | 1.05 | 0.95 | 0.812 | 0.661 | 0.786 | 0.685 | 0.527 | 0.961 | 1.01 | 0.945 | 0.439 | 1.06 | 1.09 |
| LC-2-ad | 0.288 | 0.301 | 0.272 | 0.271 | 0.275 | 0.763 | 0.429 | 0.415 | 0.479 | 0.644 | 0.721 | 0.655 | 0.788 | 0.704 | 0.879 | 0.842 | 0.808 | 0.873 | 0.473 | 0.924 |
| LCLC-97TM1 | 0.193 | 0.191 | 0.171 | – | 0.227 | 0.506 | 0.365 | 0.398 | 0.333 | 0.867 | 0.799 | 0.627 | – | 0.614 | 0.226 | 0.197 | 0.176 | 0.192 | 0.247 | 0.18 |
| LK-2 | 0.275 | 0.237 | 0.211 | 0.158 | 0.273 | 0.956 | 0.917 | 0.844 | 1.13 | 0.419 | 0.395 | 0.417 | 0.531 | 0.524 | 0.583 | 0.603 | 0.516 | 0.655 | 1.11 | 0.64 |
| LOU-NH91 | 0.369 | 0.392 | 0.385 | 0.378 | 0.425 | 0.761 | 0.646 | 0.609 | 0.55 | 0.96 | 0.924 | 0.71 | 0.746 | 0.797 | 0.968 | 0.952 | 0.896 | 0.73 | 0.47 | 0.652 |
| LU99A | 0.168 | 0.172 | 0.124 | 0.182 | 0.217 | 0.917 | 0.749 | 0.752 | 0.569 | 0.484 | 0.591 | 0.467 | 0.459 | 0.539 | 0.635 | 0.564 | 0.401 | 0.467 | 0.735 | 0.496 |
| LXF-289 | 0.839 | 0.861 | 0.855 | 0.771 | 1.01 | 0.957 | 0.952 | 0.952 | 0.925 | 0.752 | 0.79 | 0.734 | 0.814 | 0.884 | 0.931 | 0.945 | 0.968 | 0.935 | 0.929 | 0.878 |
| NCI-H23 | 0.627 | 0.634 | 0.658 | 0.643 | 0.596 | 0.835 | 0.876 | 0.962 | 0.719 | 0.7 | 0.523 | 0.667 | 0.584 | 0.551 | 0.626 | 0.604 | 0.691 | 0.55 | 0.762 | 0.591 |
| NCI-H322M | 0.598 | 0.611 | 0.628 | 0.461 | 0.666 | 1.19 | 1.3 | 1.05 | 1.18 | 0.877 | 0.91 | 0.848 | 0.758 | 0.788 | 0.957 | 0.987 | 0.855 | 0.83 | 1.24 | 0.897 |
| NCI-H441 | 0.251 | 0.253 | 0.233 | 0.261 | 0.248 | 0.688 | 0.635 | 0.623 | 0.531 | 0.968 | 0.765 | 0.58 | 0.617 | 0.584 | 0.7 | 0.454 | 0.565 | 0.59 | 0.483 | 0.456 |
| NCI-H460 | 0.06 | 0.0695 | 0.065 | 0.0681 | 0.0901 | 1.16 | 1.2 | 1.03 | 1.07 | 0.725 | 0.697 | 0.735 | 0.649 | 0.671 | 0.673 | 0.853 | 0.762 | 0.539 | 1.15 | 0.899 |
| NCI-H520 | 0.709 | 0.714 | 0.671 | 0.565 | 0.65 | 1.11 | 1.05 | 0.926 | 0.967 | 0.659 | 0.71 | 0.838 | 0.673 | 0.452 | 1.01 | 0.969 | 0.769 | 0.894 | 1.16 | 1.06 |
| NCI-H596 | 0.451 | 0.481 | 0.498 | 0.403 | 0.477 | 1.02 | 0.857 | 1 | 0.785 | 0.745 | 0.599 | 0.682 | 0.636 | 0.558 | 1.08 | 1.14 | 1.07 | 0.812 | 0.92 | 1.06 |
| NCI-H647 | 0.195 | 0.216 | 0.181 | 0.158 | 0.198 | 1.07 | 1.28 | 1.15 | 1.13 | 0.562 | 0.631 | 0.921 | 0.761 | 0.508 | 1.31 | 1.03 | 1.13 | 1.03 | 1.19 | 1.26 |
| NCI-H838 | 0.242 | 0.249 | 0.26 | 0.249 | 0.236 | 1.09 | 1.19 | 1.08 | 0.867 | 0.714 | 0.775 | 0.697 | 0.626 | 0.515 | 0.979 | 1.04 | 0.936 | 0.59 | 1.22 | 1.01 |
